Assay: in vitro
Conditions: human, hek293t cells

**Q.** With `O=C(CCl)c1ccc2c(c1)CCN(C(=O)C(F)(F)F)C2` [10-E09, 1-[6-(2-chloroacetyl)-1,2,3,4-tetrahydroisoquinolin-2-yl]-2,2,2-trifluoroethan-1-one] as the compound, how does the viability at 48 h, 25 µM read?
**A.** 4.03%

**Q.** With `Cc1cc(C(=O)C(C)Cl)c(C)n1-c1ccc(OC(F)F)cc1` (centres unmarked) [10-E10, 2-chloro-1-{1-[4-(difluoromethoxy)phenyl]-2,5-dimethyl-1H-pyrrol-3-yl}propan-1-one] as the compound, how does the viability at 48 h, 25 µM read?
**A.** 84.6%

**Q.** With `O=C(CCl)C1CCCC2(CC2)C1` (centres unmarked) [10-E11, 2-chloro-1-{spiro[2.5]octan-5-yl}ethan-1-one] as the compound, how does the viability at 48 h, 25 µM read?
**A.** 79.6%

**Q.** For `CCn1c(-c2ccccc2)c(C(=O)CCl)c2ccccc21` [10-E12, 2-chloro-1-(1-ethyl-2-phenyl-1H-indol-3-yl)ethan-1-one], which viability at 48 h, 25 µM is on record?
**A.** 0.509%

**Q.** With `CCn1ncc(C(=O)CCl)n1` [10-E13, 2-chloro-1-(2-ethyl-2H-1,2,3-triazol-4-yl)ethan-1-one] as the compound, how does the viability at 48 h, 25 µM read?
**A.** 87.2%

**Q.** For `Cn1c(N)c(C(=O)CCl)c(=O)n(C)c1=O` [10-E14, 6-amino-5-(2-chloroacetyl)-1,3-dimethyl-1,2,3,4-tetrahydropyrimidine-2,4-dione], which viability at 48 h, 25 µM is on record?
**A.** 89.9%

**Q.** With `O=C(CCl)Cc1ccc(Cl)c(Cl)c1` [10-E15, 1-chloro-3-(3,4-dichlorophenyl)propan-2-one] as the compound, how does the viability at 48 h, 25 µM read?
**A.** 1.56%

**Q.** With `O=C(CCl)c1cc(Cl)ccc1Cl` [10-E16, 2-chloro-1-(2,5-dichlorophenyl)ethan-1-one] as the compound, how does the viability at 48 h, 25 µM read?
**A.** 4.26%

**Q.** Which viability at 48 h, 25 µM does the source give for `O=C(CCl)Cc1cccc(Cl)c1` [10-E17, 1-chloro-3-(3-chlorophenyl)propan-2-one] here?
**A.** 1.29%

**Q.** For `CCS(=O)(=O)N1CCc2cc(C(=O)CCl)ccc21` [10-E18, 2-chloro-1-[1-(ethanesulfonyl)-2,3-dihydro-1H-indol-5-yl]ethan-1-one], which viability at 48 h, 25 µM is on record?
**A.** 1.16%

**Q.** With `O=C(CCl)Cc1ccc(F)cc1Cl` [10-E19, 1-chloro-3-(2-chloro-4-fluorophenyl)propan-2-one] as the compound, how does the viability at 48 h, 25 µM read?
**A.** 1.31%

**Q.** With `O=C1C=CC(=O)N1CCc1ccccc1` [10-E20, 1-(2-phenylethyl)-2,5-dihydro-1H-pyrrole-2,5-dione] as the compound, how does the viability at 48 h, 25 µM read?
**A.** 4.04%

**Q.** With `O=C(O)C(c1ccccc1)N1C(=O)C=CC1=O` (centres unmarked) [10-E21, 2-(2,5-dioxo-2,5-dihydro-1H-pyrrol-1-yl)-2-phenylacetic acid] as the compound, how does the viability at 48 h, 25 µM read?
**A.** 92.4%

**Q.** With `O=C(O)c1csc(C(=O)CCl)c1` [10-E22, 5-(2-chloroacetyl)thiophene-3-carboxylic acid] as the compound, how does the viability at 48 h, 25 µM read?
**A.** 91.8%

**Q.** With `COc1ccc2[nH]cc(C3=CCN(C(=O)C=CCN(C)C)CC3)c2c1` [10-F03, 4-(dimethylamino)-1-[4-(5-methoxy-1H-indol-3-yl)-1,2,3,6-tetrahydropyridin-1-yl]but-2-en-1-one] as the compound, how does the viability at 48 h, 25 µM read?
**A.** 92.2%

**Q.** With `CCN(c1ccc(C(=O)CCl)cc1)S(C)(=O)=O` [10-F04, N-[4-(2-chloroacetyl)phenyl]-N-ethylmethanesulfonamide] as the compound, how does the viability at 48 h, 25 µM read?
**A.** 22.5%

**Q.** With `Cc1cc(C(=O)CCl)c(C)n1-c1ccon1` [10-F06, 2-chloro-1-[2,5-dimethyl-1-(1,2-oxazol-3-yl)-1H-pyrrol-3-yl]ethan-1-one] as the compound, how does the viability at 48 h, 25 µM read?
**A.** 1.56%

**Q.** With `Cn1c(=O)oc2cc(C(=O)CCl)ccc21` [10-F07, 6-(2-chloroacetyl)-3-methyl-2,3-dihydro-1,3-benzoxazol-2-one] as the compound, how does the viability at 48 h, 25 µM read?
**A.** 110%

**Q.** Which viability at 48 h, 25 µM does the source give for `CC(C)Cn1c(N)c(C(=O)CCl)c(=O)[nH]c1=O` [10-F08, 6-amino-5-(2-chloroacetyl)-1-(2-methylpropyl)-1,2,3,4-tetrahydropyrimidine-2,4-dione] here?
**A.** 91.2%

**Q.** Which viability at 48 h, 25 µM does the source give for `C#CCN1C(=O)C=CC1=O` [10-F09, 1-(prop-2-yn-1-yl)-2,5-dihydro-1H-pyrrole-2,5-dione] here?
**A.** 98.4%

**Q.** For `N#Cc1ccc(C(=O)CCl)cc1` [10-F10, 4-(2-chloroacetyl)benzonitrile], which viability at 48 h, 25 µM is on record?
**A.** 49%

**Q.** With `Cc1ccc(NC(=O)N2CCSSCC2)c(C)c1` [10-F11, N-(2,4-dimethylphenyl)-1,2,5-dithiazepane-5-carboxamide] as the compound, how does the viability at 48 h, 25 µM read?
**A.** 102%

**Q.** With `CCOc1ccc(C(=O)CCl)cc1` [10-F12, 2-chloro-1-(4-ethoxyphenyl)ethan-1-one] as the compound, how does the viability at 48 h, 25 µM read?
**A.** 1.95%

**Q.** For `Cc1ccc(C)c(N2C(=O)C=CC2=O)c1` [10-F13, 1-(2,5-dimethylphenyl)-2,5-dihydro-1H-pyrrole-2,5-dione], which viability at 48 h, 25 µM is on record?
**A.** 109%

**Q.** Which viability at 48 h, 25 µM does the source give for `N#CC(C(=O)CCl)=C1NC(C23CC4CC(CC(C4)C2)C3)=CS1` [10-F14, 2-[4-(adamantan-1-yl)-2,3-dihydro-1,3-thiazol-2-ylidene]-4-chloro-3-oxobutanenitrile] here?
**A.** 61.8%

**Q.** Which viability at 48 h, 25 µM does the source give for `O=C1C=CC(=O)N1c1ccc(F)cc1F` [10-F15, 1-(2,4-difluorophenyl)-2,5-dihydro-1H-pyrrole-2,5-dione] here?
**A.** 89.5%

**Q.** For `Cc1cc(C(=O)CCl)c(C)n1CCc1cccs1` [10-F16, 2-chloro-1-{2,5-dimethyl-1-[2-(thiophen-2-yl)ethyl]-1H-pyrrol-3-yl}ethan-1-one], which viability at 48 h, 25 µM is on record?
**A.** 0.304%

**Q.** For `O=C1C=CC(=O)N1c1ccc(Oc2ccccc2)cc1` [10-F17, 1-(4-phenoxyphenyl)-2,5-dihydro-1H-pyrrole-2,5-dione], which viability at 48 h, 25 µM is on record?
**A.** 73.6%

**Q.** For `CCc1ccc(C(=O)CCl)cc1` [10-F18, 2-chloro-1-(4-ethylphenyl)ethan-1-one], which viability at 48 h, 25 µM is on record?
**A.** 1.07%

**Q.** Which viability at 48 h, 25 µM does the source give for `CN(c1ccc(C(=O)CCl)cc1)S(C)(=O)=O` [10-F19, N-[4-(2-chloroacetyl)phenyl]-N-methylmethanesulfonamide] here?
**A.** 74%

**Q.** Which viability at 48 h, 25 µM does the source give for `Cc1ccc(C(=O)C(C)Cl)cc1` (centres unmarked) [10-F20, 2-chloro-1-(4-methylphenyl)propan-1-one] here?
**A.** 80.5%

**Q.** For `CC(C)c1noc2ncc(C(=O)N3CCSSCC3)cc12` [10-F21, 5-[3-(propan-2-yl)-[1,2]oxazolo[5,4-b]pyridine-5-carbonyl]-1,2,5-dithiazepane], which viability at 48 h, 25 µM is on record?
**A.** 86.3%

**Q.** Which viability at 48 h, 25 µM does the source give for `CC(Cl)C(=O)c1c(N)n(C)c(=O)n(C)c1=O` (centres unmarked) [10-F22, 6-amino-5-(2-chloropropanoyl)-1,3-dimethyl-1,2,3,4-tetrahydropyrimidine-2,4-dione] here?
**A.** 87.8%

**Q.** With `O=C1C=CC(=O)N1CCc1ccccc1F` [10-G03, 1-[2-(2-fluorophenyl)ethyl]-2,5-dihydro-1H-pyrrole-2,5-dione] as the compound, how does the viability at 48 h, 25 µM read?
**A.** 11.2%

**Q.** For `Cc1cc(C(=O)CCl)c(C)n1-c1ccc(OC(F)(F)F)cc1` [10-G04, 2-chloro-1-{2,5-dimethyl-1-[4-(trifluoromethoxy)phenyl]-1H-pyrrol-3-yl}ethan-1-one], which viability at 48 h, 25 µM is on record?
**A.** 0.243%

**Q.** Which viability at 48 h, 25 µM does the source give for `Cc1csc(-n2c(C)cc(C(=O)CCl)c2C)n1` [10-G05, 2-chloro-1-[2,5-dimethyl-1-(4-methyl-1,3-thiazol-2-yl)-1H-pyrrol-3-yl]ethan-1-one] here?
**A.** 72.5%

**Q.** For `CCOc1ccc(C(=O)C(C)Cl)cc1` (centres unmarked) [10-G06, 2-chloro-1-(4-ethoxyphenyl)propan-1-one], which viability at 48 h, 25 µM is on record?
**A.** 89.3%

**Q.** For `CN1C(=O)Cc2cc(C(=O)CCl)ccc21` [10-G07, 5-(2-chloroacetyl)-1-methyl-2,3-dihydro-1H-indol-2-one], which viability at 48 h, 25 µM is on record?
**A.** 46.1%

**Q.** With `CN1C(=C(C#N)C(=O)CCl)Sc2ccccc21` [10-G08, 4-chloro-2-(3-methyl-2,3-dihydro-1,3-benzothiazol-2-ylidene)-3-oxobutanenitrile] as the compound, how does the viability at 48 h, 25 µM read?
**A.** 77.5%

**Q.** With `O=C1C=CC(=O)N1c1cc(C(F)(F)F)ccc1Cl` [10-G09, 1-[2-chloro-5-(trifluoromethyl)phenyl]-2,5-dihydro-1H-pyrrole-2,5-dione] as the compound, how does the viability at 48 h, 25 µM read?
**A.** 58.9%

**Q.** With `CNC(=O)c1cc(C(=O)CCl)cn1C` [10-G10, 4-(2-chloroacetyl)-N,1-dimethyl-1H-pyrrole-2-carboxamide] as the compound, how does the viability at 48 h, 25 µM read?
**A.** 1.73%

**Q.** With `CN(C)CCN1C(=O)C=CC1=O` [10-G11, 1-[2-(dimethylamino)ethyl]-2,5-dihydro-1H-pyrrole-2,5-dione] as the compound, how does the viability at 48 h, 25 µM read?
**A.** 96.9%

**Q.** Which viability at 48 h, 25 µM does the source give for `COC(=O)C(C(=O)CCl)=C1Nc2ccccc2N1` [10-G12, methyl 4-chloro-2-(2,3-dihydro-1H-1,3-benzodiazol-2-ylidene)-3-oxobutanoate] here?
**A.** 48.7%

**Q.** Which viability at 48 h, 25 µM does the source give for `COC(=O)c1cc(C(=O)CCl)c(C)o1` [10-G13, methyl 4-(2-chloroacetyl)-5-methylfuran-2-carboxylate] here?
**A.** 76.4%

**Q.** Which viability at 48 h, 25 µM does the source give for `Cc1cc(C(=O)CCl)c(C)n1CCc1ccc(F)cc1` [10-G14, 2-chloro-1-{1-[2-(4-fluorophenyl)ethyl]-2,5-dimethyl-1H-pyrrol-3-yl}ethan-1-one] here?
**A.** 0.499%

**Q.** With `O=C(CCl)Cc1ccc(F)cc1` [10-G15, 1-chloro-3-(4-fluorophenyl)propan-2-one] as the compound, how does the viability at 48 h, 25 µM read?
**A.** 73.7%

**Q.** With `O=C(CCl)c1cc2c3c(c1)CC(=O)N3CCC2` [10-G16, 6-(2-chloroacetyl)-1-azatricyclo[6.3.1.0,4,12]dodeca-4(12),5,7-trien-2-one] as the compound, how does the viability at 48 h, 25 µM read?
**A.** 1.58%

**Q.** Which viability at 48 h, 25 µM does the source give for `O=C(CCl)Cc1ccc(F)cc1F` [10-G17, 1-chloro-3-(2,4-difluorophenyl)propan-2-one] here?
**A.** 36.8%

**Q.** With `COc1ccc(C(=O)CCl)c(OC)c1` [10-G18, 2-chloro-1-(2,4-dimethoxyphenyl)ethan-1-one] as the compound, how does the viability at 48 h, 25 µM read?
**A.** 66.7%

**Q.** Which viability at 48 h, 25 µM does the source give for `CC(C)(C)c1ccc(CC(=O)CCl)cc1` [10-G19, 1-(4-tert-butylphenyl)-3-chloropropan-2-one] here?
**A.** 1.53%

**Q.** With `O=C(CCl)c1ccc(Oc2ccccc2)cc1` [10-G20, 2-chloro-1-(4-phenoxyphenyl)ethan-1-one] as the compound, how does the viability at 48 h, 25 µM read?
**A.** 0.299%

**Q.** For `CN1C=CC(=C(C#N)C(=O)CCl)C=C1` [10-G21, 4-chloro-2-(1-methyl-1,4-dihydropyridin-4-ylidene)-3-oxobutanenitrile], which viability at 48 h, 25 µM is on record?
**A.** 1.3%

**Q.** With `Cc1cc(C(=O)O)ccc1N1C(=O)C=CC1=O` [10-G22, 4-(2,5-dioxo-2,5-dihydro-1H-pyrrol-1-yl)-3-methylbenzoic acid] as the compound, how does the viability at 48 h, 25 µM read?
**A.** 107%

**Q.** For `COC(=O)c1c(C(=O)CCl)c(C)n(C2CC2)c1C` [10-H03, methyl 4-(2-chloroacetyl)-1-cyclopropyl-2,5-dimethyl-1H-pyrrole-3-carboxylate], which viability at 48 h, 25 µM is on record?
**A.** 93.4%

**Q.** With `CC(=O)N(C)Cc1ccc(C(=O)CCl)cc1` [10-H04, N-{[4-(2-chloroacetyl)phenyl]methyl}-N-methylacetamide] as the compound, how does the viability at 48 h, 25 µM read?
**A.** 64%

**Q.** Which viability at 48 h, 25 µM does the source give for `Cc1cccc(N2C(=O)C=CC2=O)c1C` [10-H05, 1-(2,3-dimethylphenyl)-2,5-dihydro-1H-pyrrole-2,5-dione] here?
**A.** 94.3%

Source: article PMC11995724, “Antibiotic target discovery by integrated phenotypic and activity-based profiling of electrophilic fragments” (Cell chemical biology, 2025)
